Measured values published in article PMC9090415, “Discovery of small molecule inhibitors of Plasmodium falciparum apicoplast DNA polymerase” (Journal of Enzyme Inhibition and Medicinal Chemistry, 2022).
Read-outs that look alike come from different tables or passages of the source.

Legend:
[1] = biological target: P. falciparum apicoplast DNA polymerase (Pf-apPOL) (Plasmodium falciparum, UniProt Q8ILY1); assay: Fluorescence-based high-throughput DNA polymerase assay (molecular beacon), primary screen and dose-response; assay type: biochemical;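 as to % inhibition ApPOL 90': test concentration in µM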;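 as to % inhibition apPOL 180': test concentration in µM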
Sequence of P. falciparum apicoplast DNA polymerase (Pf-apPOL) (Q8ILY1 entry or part of it): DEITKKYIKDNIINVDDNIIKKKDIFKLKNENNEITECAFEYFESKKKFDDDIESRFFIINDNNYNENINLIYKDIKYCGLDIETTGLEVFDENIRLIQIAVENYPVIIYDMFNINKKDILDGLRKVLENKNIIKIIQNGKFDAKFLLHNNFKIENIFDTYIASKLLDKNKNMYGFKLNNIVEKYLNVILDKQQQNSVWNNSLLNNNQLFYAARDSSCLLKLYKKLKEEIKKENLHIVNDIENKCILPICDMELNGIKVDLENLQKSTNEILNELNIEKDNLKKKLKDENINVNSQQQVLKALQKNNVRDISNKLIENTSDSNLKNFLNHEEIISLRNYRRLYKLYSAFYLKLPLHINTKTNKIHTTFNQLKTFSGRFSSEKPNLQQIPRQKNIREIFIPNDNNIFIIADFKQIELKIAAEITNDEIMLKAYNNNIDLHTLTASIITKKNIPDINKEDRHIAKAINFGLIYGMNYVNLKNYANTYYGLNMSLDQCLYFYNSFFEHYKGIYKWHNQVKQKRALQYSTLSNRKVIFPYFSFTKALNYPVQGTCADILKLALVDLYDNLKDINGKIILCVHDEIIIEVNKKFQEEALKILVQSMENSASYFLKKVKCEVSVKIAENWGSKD
Outline: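 Single-point screening used 10 µM compound with 20 nM polymerase, 20 nM hairpin substrate and 6 µM dNTPs for 90 min at 25 °C. Confirmatory titrations (2.5–80 µM) followed fluorescence at three times, and IC50 was derived from a fit including a cooperativity term n.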

[2] = tested on: chloroquine resistant P. falciparum parasites (strain Dd2); assay: Parasite growth inhibition assay in human red blood cells (flow cytometry, acridine orange); assay type: cell-based; settings: Plasmodium falciparum, Erythrocyte
Method: The chloroquine resistant P. falciparum parasites (strain Dd2) were cultured in de-identified, IRB-exempt human red blood cells (RBCs) obtained from the American Red Cross and parasite cultures were maintained as described. Parasitaemia (percentage of total RBCs infected) was measured by flow cytometry on an Attune NxT (ThermoFisher) by nucleic-acid staining of cultured RBCs with phosphate-buffered saline (PBS) containing 0.8 µg ml^−1 acridine orange. We began by determining percent growth inhibition at single compound dose (20 µM) for the 102 non-toxic compounds. […] The experiments were initiated with a starting parasitaemia of ∼1% and parasitaemia was measured 72 and 96 h post compound addition. Growth was normalised to parasite cultures with carrier only (DMSO).
We tested the ability of the 102 compounds to kill P. falciparum parasites cultured in human red blood cells. Due to the number of compounds, we used a single inhibitor concentration of 20 µM and performed experiments in triplicate. […] These compounds were then tested in a dose-response format against chloroquine resistant P. falciparum parasites (Dd2) and the resulting data were fit to a sigmoidal growth inhibition curve to determine EC50 values (Figure 5, Table 2). […] Finally, to determine if the compounds were killing the parasites solely via apicoplast disruption, the dose-response curves were also performed with 1 mM isopentylpyrophosphate (IPP) in the growth media (Table 2). […] Very little is known regarding mitochondrial DNA replication in P. falciparum; however, signal sequence identification algorithms have predicted that the other bacterial A-family DNA polymerase residing in P. falciparum is targeted to the mitochondria (PF3D7_0625300)[29]. […] We are currently in the process of cloning and expressing this putative mitochondrial DNA polymerase to determine the effect of these compounds on its activity.

[3] = read-out: IC50 Pf-apPOL; Table 2
[4] = supplemental file 2, sheet IC50 nontoxic compounds; Pf-apPOL
[5] = Dd2 parasites in human RBCs, dose-response, no IPP, read-out: EC50
[6] = Dd2 parasites, 1 mM isopentylpyrophosphate (IPP) in the growth media, read-out: EC50 + IPP

Cn1nc(-c2nnc(-c3ccccc3F)o2)c2c1CCN(C(=O)c1ccccc1Cl)C2 [Molecule 34]
IC50 [1, 3]: 7.2 ± 0.9 µM
IC50 [1, 4]: 7.21 µM
EC50 [2, 5]: 11.3 ± 0.9 µM
EC50 [2, 6]: 10 ± 0.7 µM

CC(C)(C)c1cc(C(=O)C(C#N)=NNc2cccc(Cl)c2)no1 [Molecule 98]
IC50 [1, 3]: 8 ± 2 µM
IC50 [1, 4]: 8.45 µM
EC50 [2, 5]: 16 ± 1 µM
EC50 [2, 6]: 11 ± 1 µM

O=C1Nc2ccc(I)cc2C1=Cc1cc(Br)c(O)c(Br)c1 [Molecule 27]
IC50 [1, 3]: 15 ± 1 µM
IC50 [1, 4]: 15.6 µM
EC50 [2, 5]: 10 ± 1 µM
EC50 [2, 6]: 9 ± 1 µM

NC(=O)c1cc[n+](CC2=C(C(=O)[O-])N3C(=O)[C@@H](NC(=O)[C@@H](c4ccccc4)S(=O)(=O)[O-])[C@H]3SC2)cc1.[Na+] [Molecule 9, O=C([C@H](S(=O)(=O)[O-])c1ccccc1)N[C@@H]1C(=O)N2[C@@H]1SCC(=C2C(=O)[O-])C[n+]1ccc(cc1)C(=O)N.[Na+]]
DNA Pol ([1]; 'DNA Pol' of the 186 hits list (primary screen result); unit not given; 90 min, 10 µM): 104
% inhibition Apo pol 10' ([1]; DRC-1; 10'; concentration 2.5): 39.849%
% inhibition Apo pol 10' ([1]; DRC-1; 10'; concentration 5): 54.1804%
% inhibition Apo pol 10' ([1]; DRC-1; 10'; concentration 10): 77.8206%
% inhibition Apo pol 10' ([1]; DRC-1; 10'; concentration 20): 94.0018%
% inhibition Apo pol 10' ([1]; DRC-1; 10'; concentration 40): 97.9008%
% inhibition Apo pol 10' ([1]; DRC-1; 10'; concentration 80): 96.5672%
% inhibition Apol 90' ([1]; DRC-1; 90'; concentration 2.5): 3.442%
% inhibition Apol 90' ([1]; DRC-1; 90'; concentration 5): 17.2714%
% inhibition Apol 90' ([1]; DRC-1; 90'; concentration 10): 53.7945%
% inhibition Apol 90' ([1]; DRC-1; 90'; concentration 20): 88.3864%
% inhibition Apol 90' ([1]; DRC-1; 90'; concentration 40): 97.5%
% inhibition Apol 90' ([1]; DRC-1; 90'; concentration 80): 97.5161%
% inhibition apPOL 180' ([1]; DRC-1; 180'; concentration 2.5): -2.063%
% inhibition apPOL 180' ([1]; DRC-1; 180'; concentration 5): 5.595%
% inhibition apPOL 180' ([1]; DRC-1; 180'; concentration 10): 40.8592%
% inhibition apPOL 180' ([1]; DRC-1; 180'; concentration 20): 84.7929%
% inhibition apPOL 180' ([1]; DRC-1; 180'; concentration 40): 96.7618%
% inhibition apPOL 180' ([1]; DRC-1; 180'; concentration 80): 97.7754%
% inhibition Apo pol 5' ([1]; DRC-2, 5', concentration 20 (unit not given)): 56%
% inhibition Apol 40' ([1]; DRC-2, 40', concentration 40 (unit not given)): 76%
% inhibition Apol 40' ([1]; DRC-2, 40', concentration 80 (unit not given)): 76%
% inhibition apPOL 180' ([1]; DRC-2, 180', concentration 40 (unit not given)): 83%
% inhibition apPOL 180' ([1]; DRC-2, 180', concentration 80 (unit not given)): 83%
% inhibition Apo pol 5' ([1]; DRC-2; 5'; concentration 2.5): 21%
% inhibition Apo pol 5' ([1]; DRC-2; 5'; concentration 5): 28%
% inhibition Apo pol 5' ([1]; DRC-2; 5'; concentration 10): 47%
% inhibition Apo pol 5' ([1]; DRC-2; 5'; concentration 20): 56%
% inhibition Apo pol 5' ([1]; DRC-2; 5'; concentration 40): 58%
% inhibition Apo pol 5' ([1]; DRC-2; 5'; concentration 80): 56%
% inhibition Apo pol 5' ([1]; DRC-2; 5'; concentration 80 (unit not given)): 56%
% inhibition Apol 40' ([1]; DRC-2; 40'; concentration 2.5): -0.192%
% inhibition Apol 40' ([1]; DRC-2; 40'; concentration 5): 15%
% inhibition Apol 40' ([1]; DRC-2; 40'; concentration 10): 49%
% inhibition Apol 40' ([1]; DRC-2; 40'; concentration 20): 71%
% inhibition Apol 40' ([1]; DRC-2; 40'; concentration 40): 76%
% inhibition Apol 40' ([1]; DRC-2; 40'; concentration 80): 76%
% inhibition ApPOL 90' ([1]; DRC-2; 90'; concentration 2.5): -4%
% inhibition ApPOL 90' ([1]; DRC-2; 90'; concentration 5): 8%
% inhibition ApPOL 90' ([1]; DRC-2; 90'; concentration 10): 46%
% inhibition ApPOL 90' ([1]; DRC-2; 90'; concentration 20): 74%
% inhibition ApPOL 90' ([1]; DRC-2; 90'; concentration 40): 81%
% inhibition ApPOL 90' ([1]; DRC-2; 90'; concentration 80): 80%
% inhibition apPOL 180' ([1]; DRC-2; 180'; concentration 2.5): 1.56%
% inhibition apPOL 180' ([1]; DRC-2; 180'; concentration 5): 9%
% inhibition apPOL 180' ([1]; DRC-2; 180'; concentration 10): 41%
% inhibition apPOL 180' ([1]; DRC-2; 180'; concentration 20): 75%
% inhibition apPOL 180' ([1]; DRC-2; 180'; concentration 40): 83%
% inhibition apPOL 180' ([1]; DRC-2; 180'; concentration 80): 83%
DNA Pol ([1]; primary screen value of the library well; unit not given; 90 min, 10 µM): 104

COc1ccc(C=C2Oc3c(ccc4c3CN(Cc3ccco3)CO4)C2=O)c(OC)c1 [KU0199404]
% inhibition Apo pol 10' ([1]; DRC-1; concentration 2.5; 10'): 1.778%
% inhibition Apol 90' ([1]; DRC-1; concentration 2.5; 90'): 6.394%
% inhibition apPOL 180' ([1]; DRC-1; concentration 2.5; 180'): 14.4773%
% inhibition Apo pol 10' ([1]; DRC-1; concentration 5; 10'): 2.359%
% inhibition Apol 90' ([1]; DRC-1; concentration 5; 90'): 10.7843%
% inhibition apPOL 180' ([1]; DRC-1; concentration 5; 180'): 25.2477%
% inhibition Apo pol 10' ([1]; DRC-1; concentration 10; 10'): 17.8134%
% inhibition Apol 90' ([1]; DRC-1; concentration 10; 90'): 29.7292%
% inhibition apPOL 180' ([1]; DRC-1; concentration 10; 180'): 48.7066%
% inhibition Apo pol 10' ([1]; DRC-1; concentration 20; 10'): 37.7158%
% inhibition Apol 90' ([1]; DRC-1; concentration 20; 90'): 50.8732%
% inhibition apPOL 180' ([1]; DRC-1; concentration 20; 180'): 69.9557%
% inhibition Apo pol 10' ([1]; DRC-1; concentration 40; 10'): 58.5562%
% inhibition Apol 90' ([1]; DRC-1; concentration 40; 90'): 70.9348%
% inhibition apPOL 180' ([1]; DRC-1; concentration 40; 180'): 86.2262%
% inhibition Apo pol 10' ([1]; DRC-1; concentration 80 (unit not given); 10'): 73.935%
% inhibition Apol 90' ([1]; DRC-1; concentration 80; 90'): 78.9077%
% inhibition apPOL 180' ([1]; DRC-1; concentration 80; 180'): 90.2103%
% inhibition Apo pol 5' ([1]; DRC-2; 5'; concentration 10): 33%
% inhibition Apo pol 5' ([1]; DRC-2; 5'; concentration 80): 49%
% inhibition Apol 40' ([1]; DRC-2; 40'; concentration 10): 33%
% inhibition Apol 40' ([1]; DRC-2; 40'; concentration 20): 49%
% inhibition Apo pol 5' ([1]; DRC-2; concentration 2.5; 5'): 5%
% inhibition Apol 40' ([1]; DRC-2; concentration 2.5; 40'): 1.45%
% inhibition ApPOL 90' ([1]; DRC-2; concentration 2.5; 90'): -0.679%
% inhibition apPOL 180' ([1]; DRC-2; concentration 2.5; 180'): -6%
% inhibition Apo pol 5' ([1]; DRC-2; concentration 5; 5'): 12%
% inhibition Apol 40' ([1]; DRC-2; concentration 5; 40'): 3.41%
% inhibition ApPOL 90' ([1]; DRC-2; concentration 5; 90'): -6.4%
% inhibition apPOL 180' ([1]; DRC-2; concentration 5; 180'): -80%
% inhibition Apo pol 5' ([1]; DRC-2; concentration 10; 5'): 33%
% inhibition Apol 40' ([1]; DRC-2; concentration 10; 40'): 33%
% inhibition ApPOL 90' ([1]; DRC-2; concentration 10; 90'): 30%
% inhibition apPOL 180' ([1]; DRC-2; concentration 10; 180'): 17%
% inhibition Apo pol 5' ([1]; DRC-2; concentration 20; 5'): 46%
% inhibition Apol 40' ([1]; DRC-2; concentration 20; 40'): 49%
% inhibition ApPOL 90' ([1]; DRC-2; concentration 20; 90'): 45%
% inhibition apPOL 180' ([1]; DRC-2; concentration 20; 180'): 31%
% inhibition Apo pol 5' ([1]; DRC-2; concentration 40; 5'): 52%
% inhibition Apol 40' ([1]; DRC-2; concentration 40; 40'): 58%
% inhibition ApPOL 90' ([1]; DRC-2; concentration 40; 90'): 56%
% inhibition apPOL 180' ([1]; DRC-2; concentration 40; 180'): 47%
% inhibition Apo pol 5' ([1]; DRC-2; concentration 80; 5'): 49%
% inhibition Apol 40' ([1]; DRC-2; concentration 80; 40'): 51%
% inhibition ApPOL 90' ([1]; DRC-2; concentration 80; 90'): 48%
% inhibition apPOL 180' ([1]; DRC-2; concentration 80; 180'): 43%
DNA Pol ([1]; primary screen value of the 186 hits; unit not given; 90 min, 10 µM): 29
DNA Pol ([1]; primary screen value; head prints only 'DNA Pol'; 90 min, 10 µM): 29

COc1ccc(-c2c(C(F)(F)F)nn3c(=O)cc(-c4cccc([N+](=O)[O-])c4)[nH]c23)cc1 [Molecule 16]
IC50 [1, 4]: 9.3 µM
